Broadly, the IC50 is the concentration needed to halve the response being measured.

Each structure is given as a SMILES string. “Also recorded” adds a separate entry of the source.

These results are taken from US11866394B2, “Prodrugs of hydroxamate-based GCPII inhibitors” (The Johns Hopkins University, priority 2016, dated 2024).

For one series, the target named is rhGCPII (Homo sapiens, UniProt Q04609). The series is described as follows: GCPII inhibition, radioenzymatic assay with 3H-NAAG. Format: biochemical. The note with it: rhGCPII, 3H-NAAG, pH 8.0; read-out: IC50, inhibition potency against GCPII. How it is done:
Inhibition constants of prodrugs were determined using the radioenzymatic assay with 3HNAAG (radiolabeled at the terminal glutamate) as has been previously described (Novakova, et al., J. Med. Chem, 2016). Briefly, rhGCPII (30 ng/mL) was preincubated in the presence of inhibitors at varying concentrations, in 20 mM Tris, 150 mM NaCl, pH 8.0, for 15 min at 37° C. in the total volume of 80 μL. The reaction was initiated by the addition of 40 μL of the mixture of 0.31 μM NAAG (Sigma) and 15 nM 3H-NAAG (50 Ci/mmol in Tris buffer, PerkinElmer) to the total reaction volume of 120 μL. Following 20 min incubation, the reaction was terminated by addition of 120 μL of potassium phosphate (200 Mm), EDTA (50 Mm) and β-mercaptoethanol (2Mm), pH 7.4. The released glutamate was separated by ion-exchange chromatography and quantified by liquid scintillation counting. GraphPad Prism software (GraphPad Software, San Diego, CA, USA), was used for data fitting and IC50 values were calculated from the inhibition curves where applicable.

Series [1] in a line: In vitro plasma metabolite identification studies. Conditions: 10 μM, 37° C., 60 min incubation. The class given is in vitro ADME. Here is the method:
Plasma stability studies were conducted in mouse plasma as previously described. (Majer, et al., 2016) Compound 1 and prodrugs (12, 23 and 30) (10 μM) were spiked in plasma and incubated in an orbital shaker at 37° C. At zero and 60 min post incubation, 100 μL aliquots of the mixture in triplicate were removed and the reaction quenched by addition of two times the volume of ice cold acetonitrile spiked with the internal standard (losartan 5 μM). The samples were vortexed for 30 s and centrifuged at 12000 g for 10 min. Supernatant (50 μL) was diluted with 50 μL water and transferred to a 250 μL polypropylene vial sealed with a Teflon cap. Prodrug disappearance and metabolite identification were analyzed over time using an Agilent 1260 HPLC coupled to a ESITOF Agilent 6530 with Agilent Jet Stream Technology (Agilent Technologies, Santa Clara, CA). Samples were separated on a Waters 1.7 μm, C18, 100×2.1 column at a flow rate 0.3 mL/min. […] The mass spectrometry instrument was operated in a negative or positive (for JV-2946) ion mode with a voltage of +3.00 kV applied to the capillary. The temperature, the flow rate of the nitrogen drying gas, the pressure of the nitrogen nebulizing gas, the temperature, and the flow rate of the sheath gas were set at 325° C., 10 L/min, 40 psi, 390° C., and 11/min, respectively.

The subject of series [2] is rat chronic constriction injury (CCI) model of neuropathic pain. The note with it: cited from earlier work.
The conditions of series [3]: cited from earlier work; for oral bioavailability: background statement.
Series [4] can be described thus: Subcutaneous plasma and sciatic nerve pharmacokinetic studies in mice. The class given is in vivo. The note with it: 10 mg/kg equivalent s.q., 10-120 min post dose. Here is the method:
Bioanalysis of parent and intact prodrug in plasma and tissues: Prior to extraction, frozen samples were thawed on ice. For plasma, 50 μL of the sample was transferred into siliconized microcentrifuge tubes. For sciatic nerves, the samples were weighed in a 1.7 mL tubes and homogenized in 5× the volume of methanol. The calibration curves were prepared using naïve plasma and sciatic nerves in a concentration range of 50-10000 pmol/g or pmol/mL. Sample preparation involved a single liquid extraction by addition of 300 μL of methanol with internal standard (losartan 200 nM in methanol), followed by vortexing for 30 s and then centrifugation at 10,000×g for 10 min. Supernatant (about 250 μL) was transferred and evaporated to dryness at 40° C. under a gentle stream of nitrogen. The residue was reconstituted with 50 μL of 30% acetonitrile and analysed by LC/MS/MS.
Chromatographic analysis was performed using an Accela™ ultra high-performance system consisting of an analytical pump, and an autosampler coupled with TSQ Vantage mass spectrometer (Thermo Fisher Scientific Inc., Waltham, MA). […] The mobile phase used was composed of 0.1% formic acid in acetonitrile and 0.1% formic acid in H2O with gradient elution, starting with 10% (organic) linearly increasing to 99% up to 2.5 min, maintaining at 99% (2.5-3.5 min) and reequlibrating to 10% by 4.5 min. The total run time for each analyte was 4.5 min. The mass transitions (M−H)− used for Compound 50 were 280.077>175.168, 203.156; and for losartan were 420.895>127.040, 179.108.

Series [5] concerns rat chronic constriction injury (CCI) model of neuropathic pain. Description: Chronic constrictive injury (CCI) model of neuropathic pain, thermal hyperalgesia. The class given is in vivo. The source says: All experimental protocols were approved by the Institutional Animal Care and Use Committee at Johns Hopkins University (Baltimore, MD) and adhered to all of the applicable institutional and governmental guidelines for the humane treatment of laboratory animals. Male Sprague-Dawley rats (200-250 g; n=10-15 per group) were subjected to peripheral neuropathy injury by constriction of the sciatic nerve performed according to methods described previously. (Novakova, et al., 2016; Bennett, et al., 1988; Attal, et al., 1990) In brief, the common sciatic nerve was exposed and 4 ligatures (4.0 chromic gut) tied loosely around it with 1 mm spacing. Wound clips were used to close wounds and animals were returned to home cages for recovery. Hyperalgesia testing was initiated 10 days post-surgery. Pain sensitivity was assessed by determining withdrawal latencies in response to a constant thermal stimulus directed to the plantar surface of the hind paw using a Basile Plantar apparatus (Ugo Basile, Vaarese, Italy) according to the method described by Hargreaves et al. (Hargreaves, et al., 1988) Apparatus was calibrated so that normal rats respond to the stimulus within 15 sec of application. Withdrawal latency (i.e., the time taken for the rat to withdraw its paw from the heat source) was measured to the nearest 0.1 sec. The “difference in score” was calculated by subtracting the average latency of the paw on the non-ligated versus ligated side. Each animal was tested during two experimental sessions per week, with three days allowed to elapse between test sessions. Test agents, prodrug 12 (3 mg/kg equivalent of 1), or gabapentin (50 mg/kg and 100 mg/kg po) as a positive control were dosed daily throughout the study via oral gavage and one hour before testing on experimental days. Statistical analysis with students t-test was used to determine differences between control and treatment group.

rhGCPII, sequence (Q04609 whole entry): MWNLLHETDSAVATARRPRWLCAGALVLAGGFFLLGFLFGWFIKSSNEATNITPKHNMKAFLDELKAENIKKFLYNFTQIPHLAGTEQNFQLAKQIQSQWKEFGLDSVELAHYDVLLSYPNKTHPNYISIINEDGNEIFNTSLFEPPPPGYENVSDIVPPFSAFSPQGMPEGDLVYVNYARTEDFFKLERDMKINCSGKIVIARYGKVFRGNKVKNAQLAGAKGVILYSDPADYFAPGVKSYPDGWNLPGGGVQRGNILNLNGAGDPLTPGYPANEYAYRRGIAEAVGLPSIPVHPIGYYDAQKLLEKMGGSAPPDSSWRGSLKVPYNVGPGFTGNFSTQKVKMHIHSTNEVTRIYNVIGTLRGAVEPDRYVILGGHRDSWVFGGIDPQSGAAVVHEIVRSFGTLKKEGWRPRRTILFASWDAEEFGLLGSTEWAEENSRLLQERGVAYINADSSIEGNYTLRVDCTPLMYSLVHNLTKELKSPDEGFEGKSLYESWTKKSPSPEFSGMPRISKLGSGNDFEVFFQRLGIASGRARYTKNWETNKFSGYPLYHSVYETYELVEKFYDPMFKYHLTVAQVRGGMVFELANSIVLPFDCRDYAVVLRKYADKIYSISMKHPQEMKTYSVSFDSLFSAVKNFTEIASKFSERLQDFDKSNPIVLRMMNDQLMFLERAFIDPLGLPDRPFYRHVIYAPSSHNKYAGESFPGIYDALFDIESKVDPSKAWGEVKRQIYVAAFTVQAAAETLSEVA

For the molecule `O=C(CCC(Cc1ccc(C(=O)O)cc1)C(=O)O)NO` (stereo not drawn) [Compound 1, 4-Carboxy-α-[3-(hydroxyamino)-3-oxopropyl]-benzenepropanoic acid], on rhGCPII, the IC50 was 44 nM. In addition, in series [1], the “stability / prodrug disappearance in mouse plasma” value (“stability / prodrug disappearance” for short) is on record as “completely stable”. Moreover, in series [2] (10 mg/kg/day oral dosing, previously shown), the “analgesic effects in the CCI model” value is on record as “analgesic effects”. The “first day with significantly reduced thermal hyperalgesia” value in series [2] (oral 10 mg/kg/day (Novakova, et al., 2016)) is 8 days. Also, the “distribution to sciatic nerves” value in series [3] (Novakova, et al., 2016) is given as “good distribution to sciatic nerves”. The oral bioavailability result in series [3] was “poor oral bioavailability”.
Turning to `O=C(O)CCC(CP(=O)(O)O)C(=O)O` (stereo not shown) [Compound 2-PMPA, 2-phosphonomethyl pentanedioic acid], the oral bioavailability result in series [3] is “negligible oral availability”.
In the case of `CCOC(=O)c1ccc(CC(CCC(=O)NOCc2ccc(OC(C)=O)cc2)C(=O)O)cc1` (stereo not shown) [Compound 23, 5-(((4-Acetoxybenzyl)oxy)amino)-2-(4-(ethoxycarbonyl)benzyl)-5-oxopentanoic acid], the “stability / prodrug disappearance” value in series [1] is listed as “complete loss of 23”.
As for `CC(=O)Oc1ccc(CONC(=O)CCC(Cc2ccc(C(=O)OCOC(=O)OC(C)C)cc2)C(=O)O)cc1` (stereo not shown) [Compound 30, 5-(((4-Acetoxybenzyl)oxy)amino)-2-(4-((((isopropoxycarbonyl)oxy)methoxy)carbonyl)benzyl)-5-oxopentanoic acid], the “plasma (systemic) levels of active compound 50 after subcutaneous dosing” value in series [4] (plasma) was “high systemic levels”. Also, in series [4] (sciatic nerve), the “sciatic nerve exposure of active compound 50 after subcutaneous dosing” value is listed as “excellent nerve exposure”. Also, the “stability / prodrug disappearance” value in series [1] is given as “completely hydrolyzed”.
For `NCC1(CC(=O)O)CCCCC1` [gabapentin, reference compound], the “antinociceptive effect on thermal hyperalgesia, ligated side” value in series [5] (oral 50 mg/kg/day) is on record as “did not significantly attenuate the hyperalgesic state”; in series [5] (oral 100 mg/kg/day, 100 mg/kg/day) it was “significantly reversed allodynia; also recorded: significantly attenuated CCI-induced hyperalgesic state”.
